In patent US20170273985A1, “TRICYCLIC DERIVATIVE” (Sunovion Pharmaceuticals Inc., priority 2014, published 2017):
pIC50: −log10 of the molar value.

Target: PDE1B (Homo sapiens, UniProt Q01064)
Assay: In vitro HTRF PDE1 inhibition assay (PDE1B)
Type: biochemical
Source text: An exemplary procedure for the in vitro Homogenous Time Resolved Fluorescence assay, which can be used to determine the inhibitory action of compounds of the invention toward PDE1 or its isoforms, follows. The HTRF PDE1 assay utilized the HTRF (Homogenous Time Resolved Fluorescence) technology, which is based on the competition between unlabeled cyclic nucleotide and cyclic nucleotide labeled with XL665 for the binding to cyclic nucleotide-specific antibody labeled with cryptate. The HTRF signal is thus inversely proportional to the concentration of cyclic nucleotide being measured. Since phosphodiesterases break down cyclic nucleotides the HTRF signal was used to determine PDE activity. The Cisbio cGMP HTRF assay kit (Cat no: 62GM2PEC) was utilized. Cyclic GMP was diluted to 200 nM in HTRF assay buffer (1 mM CaCl2, 10 mM MgCl2, 10 mM Tris-HCl, 0.1% BSA, pH 7.4). 10 μl of compound or DMSO was diluted in 200 nM cyclic GMP solution and added to wells of a 96 well white plate to give 100 nM cyclic GMP in 1% DMSO final concentration. PDE (1A3, 1B or IC) was diluted to 2× working concentration in HTRF assay buffer with 2 μg/ml calmodulin, and 10 μl was added to initiate the reaction. The plate was then incubated for 45 minutes at 37° C. d2-Labelled cyclic GMP and anti-cGMP cryptate were diluted in 50 mM phosphate buffer, 0.8 M KF, 1% Triton X100, 0.2% BSA, pH 7.0. Following incubation 10 μl d2-cGMP, then 10 μl anti cGMP cryptate were added to each well and the plate was incubated for 45 minutes at room temperature. The plate was then read on Perkin Elmer Victor at 2 different FRET readings ex/emm 340 nm/665 nm and 340 nm/615 nm. Compounds having an IC50 of <1 μM, are denoted as +++. Compounds having an IC50 of 1−10 μM, are denoted as ++. Compounds having an IC50 of 10-100 μM, are denoted as +.

Structure (SMILES)	pIC50 (Table 25)	pIC50 (Table 22)
CC(C)c1ncc2c(=O)n3c(nn12)N(CCOCCO)CC3 [Example 104]	–	> 6.00
O=c1c2cnc(C3CCOCC3)n2nc2n1CCCN2CCCCCO [Example 109]	–	> 6.00
CC(C)c1ncc2c(=O)n3c(nn12)N(CCOCCO)CCC3 [Example 107]	–	5.00 to 6.00
CC(C)n1ncc2c(=O)n3c(nc21)N(Cc1ccc(C(F)(F)F)cc1)CCC3 [Example 80]	–	> 6.00
CC(C)c1ncc2c(=O)n3c(nn12)N(CCC1CCN(C)CC1)CCC3 [Example 114, 9-Isopropyl-1-[2-(1-methyl-4-piperidinyl)ethyl]-1,2,3,4-tetrahydro-6H-imidazo[5,1-f]pyrimido[2,1-c][1,2,4]triazin-6-one]	–	> 6.00
COCCCCCN1CCn2c1nn1c(C(C)C)ncc1c2=O [Example 8]	–	> 6.00
COc1ccc(CCCN2CCCn3c2nn2c(C(C)C)ncc2c3=O)cc1 [Example 50]	–	5.00 to 6.00
CC(C)n1ncc2c(=O)n3c(nc21)N(Cc1ccc(C#N)cc1)CC3 [Example 74]	–	> 6.00
CC(C)c1ncc2c(=O)n3c(nn12)N(Cc1ccncc1)CCC3 [Example 35]	–	> 6.00
CC(C)c1ncc2c(=O)n3c(nn12)N(CCCCCCO)CC3 [Example 103]	–	> 6.00
N#Cc1cccc(CCCN2CCCn3c2nn2c(C4CCOCC4)ncc2c3=O)c1 [Example 118]	–	> 6.00
CC(C)c1ncc2c(=O)n3c(nn12)N(C(=O)CC1CCOCC1)CCC3 [Example 123, 9-Isopropyl-1-(tetrahydro-2H-pyran-4-ylacetyl)-1,2,3,4-tetrahydro-6H-imidazo[5,1-f]pyrimido[2,1-c][1,2,4]triazin-6-one]	–	5.00 to 6.00
CC(C)c1ncc2c(=O)n3c(nn12)N(C)[C@@H](c1ccc(Cl)cn1)C3 [Example 84, (R)-2-(5-Chloropyridin-2-yl)-8-isopropyl-1-methyl-2,3-dihydrodiimidazo[2,1-c:1′,5′-f][1,2,4]triazin-5(1H)-one]	–	> 6.00
CC(C)c1ncc2c(=O)n3c(nn12)N(Cc1ccccc1)CCC3 [Example 2, 1-Benzyl-9-isopropyl-1,2,3,4-tetrahydro-6H-imidazo[5,1-f]pyrimido[2,1-c][1,2,4]triazin-6-one]	–	> 6.00
CC(C)c1ncc2c(=O)n3c(nn12)N(CCCC1CCOCC1)CC3 [Example 5]	–	> 6.00
CC(C)c1ncc2c(=O)n3c(nn12)N(CC1CCOCC1)CCCC3 [Example 51]	–	> 6.00
CC(C)c1ncc2c(=O)n3c(nn12)N(C(=O)CCC1CCOCC1)CCC3 [Example 124, 9-Isopropyl-1-(3-(tetrahydro-2H-pyran-4-yl)propanoyl)-3,4-dihydro-1H-imidazo[1,5-f]pyrimido[2,1-c][1,2,4]triazin-6(2H)-one]	–	4.00 to 5.00
N#Cc1ccc(CCCN2CCCn3c2nn2c(C4CCOCC4)ncc2c3=O)cc1 [Example 119]	–	> 6.00
COCCCCN1CCn2c1nn1c(C(C)C)ncc1c2=O [Example 7]	–	> 6.00
CC(C)c1ncc2c(=O)n3c(nn12)N(Cc1cccc(C#N)c1)CCC3 [Example 37]	–	> 6.00

Structure (SMILES)	pIC50 (Table 25)	pIC50 (Table 22)
CC(C)n1ncc2c(=O)n3c(nc21)N(CC1CCOCC1)CC3 [Example 73]	–	> 6.00
CC(C)CCN1CCCn2c1nn1c(C(C)C)ncc1c2=O [Example 19]	–	> 6.00
N#Cc1ccc(CCN2CCCn3c2nn2c(C4CCOCC4)ncc2c3=O)cc1 [Example 116, 4-{2-[6-Oxo-9-(tetrahydro-2H-pyran-4-yl)-3,4-dihydro-6H-imidazo[5,1-f]pyrimido[2,1-c][1,2,4]triazin-1(2H)-yl]ethyl}benzonitrile]	–	> 6.00
CCCN1c2nn3c(C4CCOCC4)ncc3c(=O)n2CC[C@@H]1c1ccc(Cl)cc1 [Example 71]	–	> 6.00
CC(C)c1ncc2c(=O)n3c(nn12)N(CCC1CC1)CCC3 [Example 20]	–	> 6.00
CC1CN(CCCc2ccccn2)c2nn3c(C(C)C)ncc3c(=O)n2C1 (centres unmarked) [Example 121]	–	> 6.00
CC(C)c1ncc2c(=O)n3c(nn12)N(CC1CCN(C)CC1)CCC3 [Example 112, 9-Isopropyl-1-[(1-methyl-4-piperidinyl)methyl]-1,2,3,4-tetrahydro-6H-imidazo[5,1-f]pyrimido[2,1-c][1,2,4]triazin-6-one]	–	5.00 to 6.00
CC(C)c1ncc2c(=O)n3c(nn12)N(CCc1ccccc1F)CCC3 [Example 43]	–	> 6.00
CC(C)c1ncc2c(=O)n3c(nn12)N(CCc1ccncc1)CCC3 [Example 41]	–	> 6.00
N#Cc1cccc(CN2CCCn3c2nn2c(C4CCOCC4)ncc2c3=O)c1 [Example 60]	–	> 6.00
CC(C)c1ncc2c(=O)n3c(nn12)N(CCCCCO)CCC3 [Example 101, 1-(5-Hydroxypentyl)-9-isopropyl-1,2,3,4-tetrahydro-6H-imidazo[5,1-f]pyrimido[2,1-c][1,2,4]triazin-6-one]	–	> 6.00
CC(C)c1ncc2c(=O)n3c(nn12)N(CCCC(O)CO)CC3 (centres unmarked) [Example 110, 1-(4,5-Dihydroxypentyl)-8-isopropyl-2,3-dihydro-1H,5H-diimidazo[2,1-c:5′,1′-f][1,2,4]triazin-5-one]	–	> 6.00
CC(C)c1ncc2c(=O)n3c(nn12)N(CCc1ccc(C#N)cc1)CCC3 [Example 38]	–	> 6.00
CC(C)c1ncc2c(=O)n3c(nn12)N(CCCc1cccc(F)c1)CCC3 [Example 122]	–	> 6.00
CC(C)c1ncc2c(=O)n3c(nn12)N(CC1CCOCC1)C(C)CC3 (centres unmarked) [Example 3, 11-Methyl-10-(oxan-4-ylmethyl)-6-(propan-2-yl)-1,5,7,8,10-pentaazatricyclo[7,4,0,0,3,7]trideca-3,5,8-trien-2-one]	–	> 6.00
CC(C)c1ncc2c(=O)n3c(nn12)N(CCCCO)CC3 [Example 100, 1-(4-Hydroxybutyl)-8-isopropyl-2,3-dihydro-1H,5H-diimidazo[2,1-c:5′,1′-f][1,2,4]triazin-5-one]	–	> 6.00
COCCN1CCCn2c1nn1c(C(C)C)ncc1c2=O [Example 23]	–	> 6.00
CCc1ccc(C2Cn3c(nn4c(C(C)C)ncc4c3=O)N2CC(C)C)cn1 (centres unmarked) [Example 99]	–	5.00 to 6.00
CC(C)CN1CCCn2c1nc1c(cnn1C(C)C)c2=O [Example 77]	–	> 6.00

Continued, values first:

pIC50 (Table 25)	pIC50 (Table 22)	Structure (SMILES)
> 6.00	–	O=c1c2cnc(C3CCOCC3)n2nc2n1CCCN2CC1CC1(F)F (centres unmarked) [Example 197]
> 6.00	–	CCO[C@H]1CC[C@@H](CN2CCCn3c2nn2c(C4CCOCC4)ncc2c3=O)CC1 [Example 196]
> 6.00	–	O=c1c2cnn(C3CCOCC3)c2nc2n1CCCN2Cc1ccc(-c2ccc(F)cn2)cc1 [Example 221]
> 6.00	–	O=c1c2cnc(C3CCC3)n2nc2n1CCN2Cc1ccc(Cl)cn1 [Example 144]
> 6.00	–	O=c1c2cnn(C3CCOCC3)c2nc2n1CCCN2Cc1ccc(Cl)cn1 [Example 217]
> 6.00	–	O=c1c2cnn(C3CCOCC3)c2nc2n1CCCN2CC1CCC(F)(F)CC1 [Example 223]
> 6.00	–	CC(C)c1ncc2c(=O)n3c(nn12)N(Cc1ccc(Cl)cn1)CC3 [Example 141]
> 6.00	–	O=c1c2cnc(C3CCOCC3)n2nc2n1CCN2Cc1ccc(-c2ccccn2)cc1 [Example 161]
> 6.00	–	O=c1c2cnn(C3CCOCC3)c2nc2n1CCN2Cc1ccc(C(F)(F)F)cc1 [Example 209]
> 6.00	–	CC(C)(C)CN1CCCn2c1nn1c(C3CCOCC3)ncc1c2=O [Example 184]
5.00 to 6.00	–	COC(C)c1ncc2c(=O)n3c(nn12)N(CCCC(F)(F)F)CCC3 (centres unmarked) [Example 181]
> 6.00	–	CC(C)(C)CCN1CCn2c1nc1c(cnn1C1CCOCC1)c2=O [Example 211]
> 6.00	–	CC(C)(C)CN1CCCn2c1nc1c(cnn1C1CCOCC1)c2=O [Example 228]
> 6.00	–	COc1ccccc1CN1CCn2c1nn1c(C3CCOCC3)ncc1c2=O [Example 150]
> 6.00	–	CC(C)CCN1CCn2c1nn1c(C3CCOCC3)nc(Cl)c1c2=O [Example 236, 6-Chloro-1-(3-methylbutyl)-8-(tetrahydro-2H-pyran-4-yl)-2,3-dihydro-1H,5H-diimidazo[2,1-c:5′,1′-f][1,2,4]triazin-5-one]
> 6.00	–	O=c1c2cnn(C3CCOCC3)c2nc2n1CCCN2Cc1ccc(C(F)(F)F)cc1 [Example 218]
> 6.00	–	CC(C)c1ncc2c(=O)n3c(nn12)N(CC1CCOCC1)CC(F)(F)C3 [Example 201]
> 6.00	–	COC(C)c1ncc2c(=O)n3c(nn12)N(CCC(C)(C)C)CCC3 (centres unmarked) [Example 180]
5.00 to 6.00	–	CO[C@H](C)c1ncc2c(=O)n3c(nn12)N(CCCC(F)(F)F)CC3 [Example 231]
> 6.00	–	O=c1c2cnc(C3CCOCC3)n2nc2n1CCCN2C[C@H]1CC[C@@H](C(F)(F)F)CC1 [Example 195]
> 6.00	–	CC(C)(C)CCN1CCCn2c1nc1c(cnn1C1CCOCC1)c2=O [Example 229]
> 6.00	–	O=c1c2cnc(C3CCOCC3)n2nc2n1CCCN2CCCC(F)(F)F [Example 182]
–	> 6.00	COc1ccc(CC2CCn3c(nn4c(C(C)C)ncc4c3=O)O2)cc1 (centres unmarked) [Example 131]
